According to ChEMBL document CHEMBL3045689, “Synthesis of novel 2-(3-aryl-sydnon-4-ylidene)-5-substituted-[1,3,4]-thiadiazolylamines and [1,3,4]-thiadiazol-2-yl-3-oxo-[1,2,4]-triazoles as antimicrobial agents” (2012):
In brackets after ≈: the same amount, converted by molar mass.

How the values were obtained:
Format in all cases: functional
Candida albicans = assay: Antifungal activity against Candida albicans after 18 to 24 hr by microbroth dilution method
Escherichia coli = assay: Antibacterial activity against Escherichia coli after 18 to 24 hr by microbroth dilution method
Bacillus cereus = assay: Antibacterial activity against Bacillus cereus after 18 to 24 hr by microbroth dilution method
Aspergillus niger = assay: Antifungal activity against Aspergillus niger after 18 to 24 hr by microbroth dilution method

Row | SMILES | MIC (Candida albicans) [µg/mL] | MIC (Escherichia coli) [µg/mL] | MIC (Bacillus cereus) [µg/mL] | MIC (Aspergillus niger) [µg/mL]
1 | Cc1nn(-c2ccccc2)c(=O)n1-c1nnc(-c2ccccc2)s1 | 31.2 (≈ 93.2 µM) | 31.2 (≈ 93.2 µM) | 125 (≈ 373 µM) | 62.5 (≈ 186 µM)
2 | Cc1ccc(-n2nc(C)n(-c3nnc(-c4ccccc4)s3)c2=O)cc1 | 125 (≈ 358 µM) | 15.6 (≈ 44.6 µM) | 62.5 (≈ 179 µM) | 62.5 (≈ 179 µM)
3 | COc1ccc(-n2nc(C)n(-c3nnc(-c4ccccc4)s3)c2=O)cc1 | 31.2 (≈ 85.5 µM) | 15.6 (≈ 42.7 µM) | 125 (≈ 342 µM) | 62.5 (≈ 171 µM)
4 | Cc1nn(-c2ccc(Cl)cc2)c(=O)n1-c1nnc(-c2ccccc2)s1 | 7.8 (≈ 21.1 µM) | 31.2 (≈ 84.5 µM) | 15.6 (≈ 42.2 µM) | 15.6 (≈ 42.2 µM)
5 | Cc1nnc(-n2c(C)nn(-c3ccccc3)c2=O)s1 | 31.2 (≈ 114 µM) | 62.5 (≈ 229 µM) | 125 (≈ 457 µM) | 62.5 (≈ 229 µM)
6 | Cc1ccc(-n2nc(C)n(-c3nnc(C)s3)c2=O)cc1 | 62.5 (≈ 218 µM) | 62.5 (≈ 218 µM) | 62.5 (≈ 218 µM) | 62.5 (≈ 218 µM)
7 | COc1ccc(-n2nc(C)n(-c3nnc(C)s3)c2=O)cc1 | 31.2 (≈ 103 µM) | 15.6 (≈ 51.4 µM) | 31.5 (≈ 104 µM) | 7.8 (≈ 25.7 µM)
8 | Cc1nnc(-n2c(C)nn(-c3ccc(Cl)cc3)c2=O)s1 | 7.8 (≈ 25.3 µM) | 15.6 (≈ 50.7 µM) | 15.6 (≈ 50.7 µM) | 7.8 (≈ 25.3 µM)
9 | COc1ccc(-[n+]2noc([O-])c2/C=N/c2nnc(C)s2)cc1 | 7.8 (≈ 24.6 µM) | 15.6 (≈ 49.2 µM) | 125 (≈ 394 µM) | 125 (≈ 394 µM)
10 | O=C(N[C@H](CO)[C@H](O)c1ccc([N+](=O)[O-])cc1)C(Cl)Cl [CHLORAMPHENICOL] | – | 1.95 (≈ 6.03 µM) | 12.5 (≈ 38.7 µM) | –
11 | CC(=O)N1CCN(c2ccc(OCC3COC(Cn4ccnc4)(c4ccc(Cl)cc4Cl)O3)cc2)CC1 (stereo not drawn) [KETOCONAZOLE] | 0.97 (≈ 1.83 µM) | – | – | 0.97 (≈ 1.83 µM)

Now from value to compound:

Row | MIC (Candida albicans) [µg/mL] | MIC (Escherichia coli) [µg/mL] | MIC (Bacillus cereus) [µg/mL] | MIC (Aspergillus niger) [µg/mL] | SMILES
12 | 31.2 (≈ 89.4 µM) | 31.2 (≈ 89.4 µM) | 125 (≈ 358 µM) | 125 (≈ 358 µM) | [O-]c1on[n+](-c2ccccc2)c1/C=N/c1nnc(-c2ccccc2)s1
13 | 3.9 (≈ 10.7 µM) | 62.5 (≈ 172 µM) | 125 (≈ 344 µM) | 125 (≈ 344 µM) | Cc1ccc(-[n+]2noc([O-])c2/C=N/c2nnc(-c3ccccc3)s2)cc1
14 | 62.5 (≈ 165 µM) | 62.5 (≈ 165 µM) | 62.5 (≈ 165 µM) | 62.5 (≈ 165 µM) | COc1ccc(-[n+]2noc([O-])c2/C=N/c2nnc(-c3ccccc3)s2)cc1
15 | 7.8 (≈ 20.3 µM) | 31.2 (≈ 81.4 µM) | 62.5 (≈ 163 µM) | 31.2 (≈ 81.4 µM) | [O-]c1on[n+](-c2ccc(Cl)cc2)c1/C=N/c1nnc(-c2ccccc2)s1
16 | 31.2 (≈ 109 µM) | 62.5 (≈ 218 µM) | 250 (≈ 870 µM) | 125 (≈ 435 µM) | Cc1nnc(/N=C/c2c([O-])on[n+]2-c2ccccc2)s1
17 | 31.2 (≈ 104 µM) | 62.5 (≈ 207 µM) | 125 (≈ 415 µM) | 125 (≈ 415 µM) | Cc1ccc(-[n+]2noc([O-])c2/C=N/c2nnc(C)s2)cc1
18 | 7.8 (≈ 24.2 µM) | 62.5 (≈ 194 µM) | 62.5 (≈ 194 µM) | 125 (≈ 389 µM) | Cc1nnc(/N=C/c2c([O-])on[n+]2-c2ccc(Cl)cc2)s1
